According to ChEMBL document CHEMBL1201862, “PubChem BioAssay data set” (2004):
Structures can show the parent of a compound that is named as a salt. Activity calls are given as the source filed them.

Tests used:
Fatty acid synthase [1] = target: T1, Fatty acid synthase (Homo sapiens, UniProt P49327); experiment: FAS thioesterase domain inhibitors, dose response, biochemical, endpoint fluorescence intensity, uHTS hits (AID 624327); format: functional;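 also: fluorescence from hydrolysis of an O-methyl fluorescein acyl ester substrate by the enzyme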
T1 sequence (P49327 whole entry, the tested form may be a part): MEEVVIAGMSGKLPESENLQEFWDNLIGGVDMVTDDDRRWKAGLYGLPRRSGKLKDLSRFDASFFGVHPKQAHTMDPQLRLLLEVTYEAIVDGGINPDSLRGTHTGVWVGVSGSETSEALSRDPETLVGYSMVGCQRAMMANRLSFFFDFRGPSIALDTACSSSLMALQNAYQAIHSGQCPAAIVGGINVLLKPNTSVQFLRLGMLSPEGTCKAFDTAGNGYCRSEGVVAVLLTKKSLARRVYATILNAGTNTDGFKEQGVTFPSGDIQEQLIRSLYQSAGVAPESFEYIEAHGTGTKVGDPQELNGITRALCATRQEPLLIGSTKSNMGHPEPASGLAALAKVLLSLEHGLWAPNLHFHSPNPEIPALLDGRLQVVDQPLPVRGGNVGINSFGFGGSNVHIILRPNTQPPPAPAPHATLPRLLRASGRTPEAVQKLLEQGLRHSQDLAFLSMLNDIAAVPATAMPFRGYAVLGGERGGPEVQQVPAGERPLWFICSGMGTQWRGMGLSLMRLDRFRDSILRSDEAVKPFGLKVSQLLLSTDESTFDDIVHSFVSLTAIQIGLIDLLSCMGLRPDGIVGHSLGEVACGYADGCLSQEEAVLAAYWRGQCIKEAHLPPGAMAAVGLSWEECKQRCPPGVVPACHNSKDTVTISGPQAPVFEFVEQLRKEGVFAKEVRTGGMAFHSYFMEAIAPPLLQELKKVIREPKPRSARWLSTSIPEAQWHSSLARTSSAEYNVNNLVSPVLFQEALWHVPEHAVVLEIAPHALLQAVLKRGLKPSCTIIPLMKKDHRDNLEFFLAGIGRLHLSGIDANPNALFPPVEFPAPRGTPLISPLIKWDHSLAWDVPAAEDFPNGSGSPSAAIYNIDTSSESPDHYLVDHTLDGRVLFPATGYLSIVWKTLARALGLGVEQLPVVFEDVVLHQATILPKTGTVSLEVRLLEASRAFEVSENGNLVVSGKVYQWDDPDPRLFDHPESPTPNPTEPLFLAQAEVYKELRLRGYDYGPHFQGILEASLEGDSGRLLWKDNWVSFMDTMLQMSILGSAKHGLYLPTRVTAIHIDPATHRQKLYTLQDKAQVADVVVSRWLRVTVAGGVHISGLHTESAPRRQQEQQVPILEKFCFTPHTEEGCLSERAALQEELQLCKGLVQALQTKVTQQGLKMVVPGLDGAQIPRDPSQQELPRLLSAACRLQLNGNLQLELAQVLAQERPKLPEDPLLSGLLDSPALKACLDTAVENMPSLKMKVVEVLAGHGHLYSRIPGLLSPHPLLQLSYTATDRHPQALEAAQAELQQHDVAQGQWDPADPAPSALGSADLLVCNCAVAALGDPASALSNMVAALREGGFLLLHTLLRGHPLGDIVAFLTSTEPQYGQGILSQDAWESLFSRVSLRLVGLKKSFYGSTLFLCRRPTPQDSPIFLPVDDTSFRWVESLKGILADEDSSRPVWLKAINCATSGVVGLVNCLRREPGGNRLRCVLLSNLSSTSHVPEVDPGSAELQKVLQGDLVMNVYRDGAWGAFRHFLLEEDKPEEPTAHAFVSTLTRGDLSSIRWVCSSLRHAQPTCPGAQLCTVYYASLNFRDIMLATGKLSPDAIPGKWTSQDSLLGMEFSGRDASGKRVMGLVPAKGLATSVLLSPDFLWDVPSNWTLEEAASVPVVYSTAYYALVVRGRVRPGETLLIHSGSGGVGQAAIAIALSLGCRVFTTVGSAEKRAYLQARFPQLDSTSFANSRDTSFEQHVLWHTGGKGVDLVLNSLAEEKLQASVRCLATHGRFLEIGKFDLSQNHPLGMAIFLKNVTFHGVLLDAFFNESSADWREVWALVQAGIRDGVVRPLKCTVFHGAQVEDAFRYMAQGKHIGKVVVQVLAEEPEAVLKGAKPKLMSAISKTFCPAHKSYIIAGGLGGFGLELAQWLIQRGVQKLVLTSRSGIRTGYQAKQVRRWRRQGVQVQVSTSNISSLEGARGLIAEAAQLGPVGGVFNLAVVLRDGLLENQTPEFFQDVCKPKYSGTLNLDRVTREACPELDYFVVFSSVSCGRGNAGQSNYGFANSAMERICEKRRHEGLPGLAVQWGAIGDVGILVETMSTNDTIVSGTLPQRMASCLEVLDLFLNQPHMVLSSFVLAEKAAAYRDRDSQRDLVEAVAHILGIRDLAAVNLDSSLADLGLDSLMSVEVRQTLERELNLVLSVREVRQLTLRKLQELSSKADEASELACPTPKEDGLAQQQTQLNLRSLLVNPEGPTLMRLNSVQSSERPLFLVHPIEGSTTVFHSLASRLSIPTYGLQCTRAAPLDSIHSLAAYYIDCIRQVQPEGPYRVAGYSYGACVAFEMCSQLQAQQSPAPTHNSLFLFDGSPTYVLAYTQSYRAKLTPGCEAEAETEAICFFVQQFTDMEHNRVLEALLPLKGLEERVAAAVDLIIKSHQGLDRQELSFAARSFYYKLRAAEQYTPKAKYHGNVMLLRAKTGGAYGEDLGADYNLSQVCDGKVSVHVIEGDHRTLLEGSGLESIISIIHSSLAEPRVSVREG

[2] = target: Heat shock protein HSP 90-alpha (Homo sapiens, UniProt P07900); format: functional, organism-based
Beta Lactamase = Beta Lactamase (Pseudomonas aeruginosa, UniProt Q932Y6); experiment: beta-lactamase reporter inhibitor potency, dose response, artefact control for TLR9-MyD88 binding inhibitor project, BLA reporter cells, FRET fluorescence (AID 588341); format: cell-based;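 also: cell based assay in CHO-K1 cells stably expressing beta-lactamase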
Sequence of Beta Lactamase (Q932Y6 whole entry): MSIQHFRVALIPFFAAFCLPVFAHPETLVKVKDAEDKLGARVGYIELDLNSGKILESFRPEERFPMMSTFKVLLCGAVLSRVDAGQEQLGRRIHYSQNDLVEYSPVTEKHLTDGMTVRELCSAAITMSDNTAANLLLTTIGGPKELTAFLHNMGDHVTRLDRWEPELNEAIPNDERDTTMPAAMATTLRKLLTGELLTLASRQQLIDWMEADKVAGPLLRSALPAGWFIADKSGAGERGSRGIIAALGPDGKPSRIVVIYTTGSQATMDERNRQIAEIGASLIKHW

[3] = Shn3 3'UTR reporter inhibitors, dose response, cell-based, Clone20 osteoblasts, firefly luciferase, cherry-picked (AID 624132); format: functional;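 also: firefly luciferase luminescence from reporter carrying the Shn3 3'UTR in osteoblasts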
[4] = control 3'UTR Renilla luciferase suppression, dose response, counter-screen for Shn3 inhibitor project, cell-based, Clone20-Shn3RL, cherry-picked (AID 624133); format: functional
[5] = inhibitors of PGC1a acetylation in cells, dose response, cell-based, cherry-picked samples (AID 720514); format: functional;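 also: potency may reflect raised or lowered acetylation signal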
Fatty acid synthase [6] = target: T1, Fatty acid synthase; experiment: FAS thioesterase domain inhibitors, dose response, biochemical, kinetic fluorescence intensity (AID 624326); format: functional;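 also: rate of fluorescence rise from hydrolysis of a fluorogenic O-methyl fluorescein ester substrate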
CHO = experiment: cytotoxicity in TLR9-MyD88 CHO cells, dose response, cytotoxicity control for TLR9-MyD88 binding inhibitor project, cell-based, luminescence (AID 588339); format: functional, hamster; details: Cricetulus griseus;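 also: CHO cells stably coexpressing TLR9 and MyD88 fusions from primary screen; compound exposure lasted 48 hours before viability readout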
[7] = HepG2 cell cytotoxicity, dose response, cytotoxicity control for Shn3 inhibitor project, CellTiter-Glo, cherry-picked (AID 624134); format: functional, cell-based
[8] = target: Beta-2 adrenergic receptor (Homo sapiens, UniProt P07550); experiment: beta2AR agonists driving receptor internalization, dose response, cell-based, FAP fluorogen, flow cytometry, cherry pick 1 (AID 588763); format: functional
Sequence of Beta-2 adrenergic receptor (P07550 whole entry): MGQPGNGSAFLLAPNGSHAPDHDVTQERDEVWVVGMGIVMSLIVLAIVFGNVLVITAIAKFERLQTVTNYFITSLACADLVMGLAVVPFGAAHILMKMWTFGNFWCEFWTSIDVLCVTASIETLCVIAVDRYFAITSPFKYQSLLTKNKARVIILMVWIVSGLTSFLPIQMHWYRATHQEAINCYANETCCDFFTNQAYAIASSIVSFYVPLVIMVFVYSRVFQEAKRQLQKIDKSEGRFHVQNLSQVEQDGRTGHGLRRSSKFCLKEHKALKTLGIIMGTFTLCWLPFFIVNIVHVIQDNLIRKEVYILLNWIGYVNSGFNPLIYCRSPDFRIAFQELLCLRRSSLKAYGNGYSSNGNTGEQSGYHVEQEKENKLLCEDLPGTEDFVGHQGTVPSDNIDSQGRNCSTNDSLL

Cysteine protease ATG4B = Cysteine protease ATG4B (Homo sapiens, UniProt Q9Y4P1); format: functional;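 also: Fluorescence-based dose-response confirmation assay measuring inhibition of ATG4B activity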
Sequence of Cysteine protease ATG4B (Q9Y4P1 whole entry): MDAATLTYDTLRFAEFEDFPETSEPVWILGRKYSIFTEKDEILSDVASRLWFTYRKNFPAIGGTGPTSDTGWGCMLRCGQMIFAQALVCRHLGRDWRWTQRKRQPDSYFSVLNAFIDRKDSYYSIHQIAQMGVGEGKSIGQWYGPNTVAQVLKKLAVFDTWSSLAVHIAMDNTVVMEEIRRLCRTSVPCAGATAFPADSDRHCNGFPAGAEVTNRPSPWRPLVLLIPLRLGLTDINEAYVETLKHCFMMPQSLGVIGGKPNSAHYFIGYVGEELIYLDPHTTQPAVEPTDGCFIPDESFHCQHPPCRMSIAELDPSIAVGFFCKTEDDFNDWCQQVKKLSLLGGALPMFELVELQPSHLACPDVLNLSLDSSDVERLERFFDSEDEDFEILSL

Phospholipase A2 = Phospholipase A2 (Homo sapiens, UniProt P04054); format: functional;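 also: confirmatory dose-response counterscreen on phospholipase A2, testing hits that came from an ultra-high-throughput screen for ATG4B inhibitors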
Sequence of Phospholipase A2 (P04054 whole entry): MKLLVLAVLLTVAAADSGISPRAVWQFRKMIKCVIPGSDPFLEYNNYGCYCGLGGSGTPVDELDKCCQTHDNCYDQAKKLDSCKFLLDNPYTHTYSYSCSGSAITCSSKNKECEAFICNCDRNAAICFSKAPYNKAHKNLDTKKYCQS

[9] = target: T2, Zinc finger protein mex-5 (Caenorhabditis elegans, UniProt Q9XUB2); experiment: MEX-5/TCR-2 RNA interaction inhibitors, dose response, biochemical, C. elegans, fluorescence polarization (AID 1960)
T2 sequence (Q9XUB2 whole entry): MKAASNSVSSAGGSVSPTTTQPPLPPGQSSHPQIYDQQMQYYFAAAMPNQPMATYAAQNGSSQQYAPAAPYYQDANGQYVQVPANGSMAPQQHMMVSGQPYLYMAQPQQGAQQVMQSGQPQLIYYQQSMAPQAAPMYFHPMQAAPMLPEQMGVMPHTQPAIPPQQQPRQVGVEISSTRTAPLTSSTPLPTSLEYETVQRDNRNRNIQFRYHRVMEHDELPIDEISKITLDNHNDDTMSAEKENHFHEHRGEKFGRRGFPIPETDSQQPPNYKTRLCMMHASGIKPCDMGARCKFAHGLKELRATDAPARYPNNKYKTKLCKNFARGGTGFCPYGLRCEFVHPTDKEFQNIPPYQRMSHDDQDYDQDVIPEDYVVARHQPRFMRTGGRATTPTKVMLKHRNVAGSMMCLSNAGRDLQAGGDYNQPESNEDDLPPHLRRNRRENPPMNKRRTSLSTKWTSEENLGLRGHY

[10] = target: T3, RNA-binding protein pos-1 (Caenorhabditis elegans, UniProt G5EF15); experiment: inhibitors of POS-1/mex-3 RNA binding, dose response, biochemical, fluorescence polarization (AID 1964);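 also: purified POS-1 fused to maltose binding protein made in E. coli; potency of compounds blocking POS-1 binding to fluorescent RNA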
T3 sequence (G5EF15 whole entry): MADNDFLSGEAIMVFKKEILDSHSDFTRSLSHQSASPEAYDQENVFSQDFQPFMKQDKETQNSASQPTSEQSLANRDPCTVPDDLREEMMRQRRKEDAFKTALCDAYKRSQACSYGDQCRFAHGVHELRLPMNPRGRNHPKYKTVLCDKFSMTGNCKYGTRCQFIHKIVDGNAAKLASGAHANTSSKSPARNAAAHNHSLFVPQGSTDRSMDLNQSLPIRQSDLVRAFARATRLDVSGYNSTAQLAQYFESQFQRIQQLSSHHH

[11] = growth suppression of beta-catenin-knockout colon cells, dose response, cell-based, HCT116, human colon tumor (AID 1045); format: functional;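 also: HCT116 colon tumor cells with beta catenin knocked out; cells exposed to compound for 60 hours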
[12] = growth suppression of PTEN-null colon cells, dose response, cell-based, HCT116 PTEN knockout (AID 1047); format: functional;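 also: HCT116 colon tumor cells with PTEN knocked out; cells exposed to compound for 60 hours before readout; potency for loss of cell viability measured by luminescence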
Escherichia coli = experiment: microbe, parasite or virus in culture
[13] = target: Dual specificity tyrosine-phosphorylation-regulated kinase 1A (Rattus norvegicus, UniProt Q63470); format: biochemical, Homo sapiens
[14] = THP-1 cell cytotoxicity, dose response, cytotoxicity control for non-replicating M. tuberculosis project (AID 489025); format: functional
[15] = NIH-3T3 fibroblast cytotoxicity, dose response, cytotoxicity control, cell-based, fluorescence, Alamar Blue, secondary assay (AID 2327); format: functional;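 also: NIH-3T3 mouse fibroblasts cultured with fluconazole at 8 µg/mL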
HEK293 [16] = experiment: cells; details: Homo sapiens
[17] = C. albicans growth with fluconazole, confirmation, fluorescence, retest (AID 2467); format: functional, cell-based
HEK293 [18] = experiment: cells; details: Homo sapiens; remark: listed apart in the source
Hexokinase HKDC1 = target: T4, Hexokinase HKDC1 (Homo sapiens, UniProt Q2TB90); experiment: HKDC1 hexokinase inhibitors, SAR follow-up, biochemical, set 2 (AID 588355); format: functional
T4 sequence (Q2TB90 whole entry): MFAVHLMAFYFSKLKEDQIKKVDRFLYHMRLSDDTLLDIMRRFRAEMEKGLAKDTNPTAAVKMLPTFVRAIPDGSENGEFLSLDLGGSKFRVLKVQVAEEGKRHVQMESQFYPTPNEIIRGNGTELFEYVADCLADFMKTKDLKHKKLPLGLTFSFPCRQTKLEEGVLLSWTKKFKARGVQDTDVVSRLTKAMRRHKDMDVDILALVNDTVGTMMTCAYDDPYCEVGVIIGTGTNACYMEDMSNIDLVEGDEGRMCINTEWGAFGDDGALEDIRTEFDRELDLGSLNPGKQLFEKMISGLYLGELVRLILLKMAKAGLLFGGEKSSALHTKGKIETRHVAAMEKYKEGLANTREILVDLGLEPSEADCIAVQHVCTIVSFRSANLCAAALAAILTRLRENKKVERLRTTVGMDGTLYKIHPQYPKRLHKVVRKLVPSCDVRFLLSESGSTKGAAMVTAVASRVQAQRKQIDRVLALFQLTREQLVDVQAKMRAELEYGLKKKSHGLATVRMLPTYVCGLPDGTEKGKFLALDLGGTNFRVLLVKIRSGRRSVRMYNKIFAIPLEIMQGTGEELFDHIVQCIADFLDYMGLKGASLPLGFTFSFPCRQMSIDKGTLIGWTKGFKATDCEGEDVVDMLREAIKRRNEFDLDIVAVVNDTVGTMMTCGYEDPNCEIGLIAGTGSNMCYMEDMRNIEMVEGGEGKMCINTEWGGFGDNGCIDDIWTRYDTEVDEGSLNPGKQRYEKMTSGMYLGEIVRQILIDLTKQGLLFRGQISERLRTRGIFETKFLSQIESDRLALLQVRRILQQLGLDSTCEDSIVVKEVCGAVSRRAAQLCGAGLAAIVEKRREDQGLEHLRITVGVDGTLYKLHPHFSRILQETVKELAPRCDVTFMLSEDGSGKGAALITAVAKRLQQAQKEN

Hexokinase-1 = Hexokinase-1 (Homo sapiens, UniProt P19367); experiment: HK1 enzyme inhibition by HKDC1 hits, SAR follow-up, selectivity assay for HKDC1 inhibitor project, biochemical, set 2, resazurin fluorescence coupled readout (AID 588356); format: functional
Sequence of Hexokinase-1 (P19367 whole entry): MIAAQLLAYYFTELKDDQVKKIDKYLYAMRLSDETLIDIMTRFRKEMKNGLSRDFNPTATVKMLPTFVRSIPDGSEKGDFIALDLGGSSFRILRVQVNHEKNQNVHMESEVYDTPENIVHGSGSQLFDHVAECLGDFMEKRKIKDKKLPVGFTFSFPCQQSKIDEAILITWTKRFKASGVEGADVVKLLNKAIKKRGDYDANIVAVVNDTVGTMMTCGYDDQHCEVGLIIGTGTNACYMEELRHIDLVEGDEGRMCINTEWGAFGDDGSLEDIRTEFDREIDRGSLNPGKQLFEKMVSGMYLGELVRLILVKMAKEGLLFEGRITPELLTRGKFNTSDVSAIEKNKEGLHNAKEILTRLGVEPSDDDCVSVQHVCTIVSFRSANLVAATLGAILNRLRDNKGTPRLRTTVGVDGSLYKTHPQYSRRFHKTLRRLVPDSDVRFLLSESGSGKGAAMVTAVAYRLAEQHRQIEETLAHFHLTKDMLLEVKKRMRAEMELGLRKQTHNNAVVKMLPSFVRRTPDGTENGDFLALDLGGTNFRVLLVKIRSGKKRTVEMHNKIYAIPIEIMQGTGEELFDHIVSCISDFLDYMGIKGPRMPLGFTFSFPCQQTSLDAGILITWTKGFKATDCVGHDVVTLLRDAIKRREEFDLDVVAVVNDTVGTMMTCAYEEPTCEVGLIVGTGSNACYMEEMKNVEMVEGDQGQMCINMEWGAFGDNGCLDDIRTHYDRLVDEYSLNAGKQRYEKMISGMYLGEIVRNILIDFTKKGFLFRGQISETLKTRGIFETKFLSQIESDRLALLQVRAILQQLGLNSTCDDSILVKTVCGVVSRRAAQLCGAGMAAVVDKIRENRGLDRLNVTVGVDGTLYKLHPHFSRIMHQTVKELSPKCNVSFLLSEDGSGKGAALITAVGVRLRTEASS

Question: With CCCNC(=O)c1nnsc1S(=O)(=O)c1ccc(Cl)cc1 as the compound, how does the IC50 (Fatty acid synthase [1]) read?
Answer: The IC50 was 12.7 µM (active).

Question: And the AC50 [2]?
Answer: Its AC50 is 0.602 µM (active).

Question: What about the IC50 (Beta Lactamase) of the same compound?
Answer: The IC50 was 16.3 µM (inactive).

Question: And the AC50 [3]?
Answer: Its AC50 is 3.63 µM (active).

Question: What about the AC50 [4] of the same compound?
Answer: The AC50 was 2.88 µM (active).

Question: What about the AC50 [5] of the same compound?
Answer: The AC50 was 11.7 µM (active).

Question: What about the IC50 (Fatty acid synthase [6]) of the same compound?
Answer: Its IC50 is 10.4 µM (active).

Question: What about the IC50 (CHO) of the same compound?
Answer: The IC50 was 2.45 µM (active).

Question: And the AC50 [7]?
Answer: Its AC50 is 16.4 µM (active).

Question: And the EC50 [8]?
Answer: Its EC50 is 9.54 µM (active).

Question: Which IC50 (Cysteine protease ATG4B) does the source give for COc1ccc(C(CC(=O)NCc2ccccc2)C(C)C)cc1 (configuration not stated) here?
Answer: The IC50 was 8.14 µM (active).

Question: And the IC50 (Phospholipase A2)?
Answer: The IC50 was 7.25 µM (active).

Question: Which results are given for CCC(NC(C)C)C(O)c1ccc(O)c(O)c1 (configuration not stated) [ISOETHARINE MESYLATE]?
Answer: EC50 [9]: 125 µM (active); EC50 [10]: > 300 µM (not active); EC50 [11]: 20.7 µM (active); EC50 [12]: 24.1 µM (active); EC50 [8]: 3.84 µM (active)

Question: For O=C(c1ccco1)N1CCCC(c2nc(O)c3nnn(Cc4ccc(F)cc4)c3n2)C1 (configuration not stated), which AC50 (Escherichia coli) is on record?
Answer: Its AC50 is 42.9 µM (active).

Question: Which results are given for O=c1cc(-c2ccccc2Cl)oc2c([N+](=O)[O-])c(O)cc(O)c12?
Answer: AC50 [13]: 1.22 µM (active); CC50 [14]: > 40 µM (active)

Question: For Cc1ccc2oc3c(c(=O)c2c1)C(c1cccs1)N(CCCN(C)C)C3=O (configuration not stated), which AC50 (Escherichia coli) is on record?
Answer: The AC50 was 27.1 µM (active).

Question: What does the source list for O=C(Oc1c(CN2CCOCC2)cc(Cl)c2cccnc12)c1ccccc1Cl?
Answer: AC50 [3]: 4.59 µM (active); EC50 [15]: > 160 µM (inactive); AC50 [4]: 9.15 µM (active); EC50 (HEK293 [16]): > 59.6 µM (inactive); EC50 [17]: 2.86 µM (active); EC50 (HEK293 [18]): > 59.6 µM (inactive); AC50 [7]: 7.37 µM (active)

Question: For CCCCN1C(=O)C(NC(C)=O)c2cc(C)ccc21 (configuration not stated), which IC50 (Hexokinase HKDC1) is on record?
Answer: Its IC50 is > 80 µM (inactive).

Question: And the IC50 (Hexokinase-1)?
Answer: The IC50 was > 80 µM (inactive).

Question: With Fc1ccc(CNC(=S)NCc2ccccc2)cc1 as the compound, how does the IC50 (Cysteine protease ATG4B) read?
Answer: The IC50 was 18.4 µM (active).

Question: What about the IC50 (Phospholipase A2) of the same compound?
Answer: Its IC50 is 10.6 µM (active).
